Experimental data: article PMC6719084, “Activating the Intrinsic Pathway of Apoptosis Using BIM BH3 Peptides Delivered by Peptide Amphiphiles with Endosomal Release” (Materials, 2019)

Target: T1, human cathepsin B (Homo sapiens, UniProt P07858)
T1 construct: Cathepsin B purified from human liver (Sigma-Aldrich, St. Louis, MO, USA); purchased Sigma-Aldrich; host or cells: human liver
Test: Fluorogenic cathepsin-cleavage assay (Z-RR-AMC)
Format: biochemical
Settings: recombinant cathepsin B, in vitro
From the text: The fluorogenic cathepsin-cleavage assay was done as previously described using the cathepsin B cleavage substrate Z-Arg-Arg-7-amido-4-methylcoumarin hydrochloride (Z-RR-AMC; Sigma-Aldrich, St. Louis, MO, USA) and human cathepsin B with or without the cathepsin inhibitor CA-074Me (EMD Millipore, Burlington, MA, USA).

In the case of CCCNC(=O)[C@H]1O[C@@H]1C(=O)N[C@H](C(=O)N1CCC[C@H]1C(=O)OC)[C@@H](C)CC [CA-074Me], the “inhibition of cathepsin B cleavage of fluorogenic reporter substrate” value is reported as “blocked reporter substrate cleavage”.
